Test results taken from PMC11396129, “Oxindole–benzothiazole hybrids as CDK2 inhibitors and anticancer agents: design, synthesis and biological evaluation” (BMC Chemistry, 2024).

Key:
CCRF-CEM = assay: NCI 60 panel growth inhibition (SRB), leukemia; type: cell-based, human; conditions: 10 μM
Method: (§1) Screening of cytotoxic activity against a panel of sixty human tumor cell lines The selected compounds by NCI were evaluated for their anticancer activity in a two- stage process. […] Then, the output from the single dose screen is reported as a mean graph. […] Assay protocol. […] For a typical screening experiment, cells are inoculated into 96 well microtiter plates in 100 µL at plating densities ranging from 5000 to 40,000 cells/well depending on the doubling time of individual cell lines. […] After 24 h, two plates of each cell line are fixed in situ with TCA, to represent a measurement of the cell population for each cell line at the time of drug addition (Tz). The experimental drugs are solubilized in dimethyl sulfoxide at 400-fold the desired final maximum test concentration and stored frozen prior to use. At the time of drug addition, an aliquot of frozen concentrate is thawed and diluted to twice the desired final maximum test concentration with complete medium containing 50 µg/mL gentamicin. Additional four, 10-fold or ½ log serial dilutions are made to provide a total of five drug concentrations plus control. […] For adherent cells, the assay is terminated by the addition of cold TCA. […] The supernatant is discarded, and the plates are washed five times with tap water and air dried. […] Using the seven absorbance measurements [time zero, (Tz), control growth, (C), and test growth in the presence of drug at the five concentration levels (Ti)], the percentage growth is calculated at each of the drug concentrations levels. Percentage growth inhibition is calculated as: [(Ti Tz)/(C–Tz)] x 100 for concentrations for which Ti>/=Tz and [(Ti-Tz)/Tz] x 100 for concentrations for which Ti < Tz. Three dose response parameters are calculated for each experimental agent. […] The drug concentration resulting in total growth inhibition (TGI) is calculated from Ti = Tz. […] Values are calculated for each of these three parameters if the level of activity is reached; however, if the effect is not reached or is exceeded, the value for that parameter is expressed as greater or less than the maximum or minimum concentration tested.

HL-60(TB) = assay: NCI 60 panel growth inhibition (SRB), leukemia; type: cell-based, human; conditions: HL-60(TB), 10 μM
Method: as §1

K-562 = assay: NCI 60 panel growth inhibition (SRB), leukemia; type: cell-based, human; conditions: K-562, 10 μM
Method: as §1

MOLT-4 = assay: NCI 60 panel growth inhibition (SRB), leukemia; type: cell-based, human; conditions: MOLT-4, 10 μM
Method: as §1

RPMI-8226 = assay: NCI 60 panel growth inhibition (SRB), leukemia; type: cell-based, human; conditions: RPMI-8226, 10 μM
Method: as §1

SR = assay: NCI 60 panel growth inhibition (SRB), leukemia; type: cell-based, human; conditions: 10 μM
Method: as §1

HT29 = assay: NCI 60 panel growth inhibition (SRB), colon cancer; type: cell-based, human; conditions: HT29, 10 μM
How it was run: (§2)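 Cells were plated at 5000–40,000 cells/well by doubling time; after 24 h, time-zero plates were TCA-fixed. Compounds from DMSO stocks were tested at five concentrations (10-fold or ½ log dilutions) plus control. Adherent cells were TCA-fixed; percentage growth was calculated from Tz, control and test absorbances.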

SF-268 = assay: NCI 60 panel growth inhibition (SRB), CNS cancer; type: cell-based, human; conditions: SF-268, 10 μM
Method: as §1

SF-295 = assay: NCI 60 panel growth inhibition (SRB), CNS cancer; type: cell-based, human; conditions: SF-295, 10 μM
Method: as §1

SF-539 = assay: NCI 60 panel growth inhibition (SRB), CNS cancer; type: cell-based, human; conditions: SF-539, 10 μM
Method: as §1

SNB-19 = assay: NCI 60 panel growth inhibition (SRB), CNS cancer; type: cell-based, human; conditions: SNB-19, 10 μM
Method: as §1

SNB-75 = assay: NCI 60 panel growth inhibition (SRB), CNS cancer; type: cell-based, human; conditions: SNB-75, 10 μM
Method: as §1

U251 = assay: NCI 60 panel growth inhibition (SRB), CNS cancer; type: cell-based, human; conditions: U251, 10 μM
Method: as §1

SK-MEL-2 = assay: NCI 60 panel growth inhibition (SRB), melanoma; type: cell-based, human; conditions: SK-MEL-2, 10 μM
How it was run: as §2

IGROV1 = assay: NCI 60 panel growth inhibition (SRB), ovarian cancer; type: cell-based, human; conditions: IGROV1, 10 μM
Method: as §1

NCI/ADR-RES = assay: as above; type: cell-based, human; conditions: 10 μM
Method: as §1

OVCAR-3 = assay: as above; type: cell-based, human; conditions: OVCAR-3, 10 μM
Method: as §1

OVCAR-4 = assay: as above; type: cell-based, human; conditions: OVCAR-4, 10 μM
Method: as §1

OVCAR-5 = assay: as above; type: cell-based, human; conditions: OVCAR-5, 10 μM
Method: as §1

OVCAR-8 = assay: as above; type: cell-based, human; conditions: OVCAR-8, 10 μM
Method: as §1

786-0 = assay: NCI 60 panel growth inhibition (SRB), renal cancer; type: cell-based, human; conditions: 786-0, 10 μM
How it was run: as §2

RXF 393 = assay: NCI 60 panel growth inhibition (SRB), renal cancer; type: cell-based, human; conditions: RXF 393, 10 μM
How it was run: as §2

TK-10 = assay: NCI 60 panel growth inhibition (SRB), renal cancer; type: cell-based, human; conditions: TK-10, 10 μM
How it was run: as §2

UO-31 = assay: NCI 60 panel growth inhibition (SRB), renal cancer; type: cell-based, human; conditions: UO-31, 10 μM
How it was run: as §2

[1] = tested on: NCI 60 cancer cell line panel; assay: NCI 60 panel growth inhibition (SRB), whole panel; type: cell-based, human; conditions: mean over NCI 60 panel, 10 μM
Method: as §1

SK-OV-3 = assay: NCI 60 panel growth inhibition (SRB), ovarian cancer; type: cell-based, human; conditions: SK-OV-3, 10 μM
Method: as §1

SMILES	GI% (CCRF-CEM)	GI% (HL-60(TB))	GI% (K-562)	GI% (MOLT-4)	GI% (RPMI-8226)	GI% (SR)	GI% (HT29)	GI% (SF-268)	GI% (SF-295)	GI% (SF-539)	GI% (SNB-19)	GI% (SNB-75)	GI% (U251)	GI% (IGROV1)	GI% (NCI/ADR-RES)	GI% (OVCAR-3)	GI% (OVCAR-4)	GI% (OVCAR-5)	GI% (OVCAR-8)	GI% (RXF 393)	also measured
COc1ccc(-c2nc3ccccc3s2)cc1OCC(=O)NN=C1C(=O)Nc2ccc(Cl)cc21 [Compound 9q, 2-(5-(Benzo[d]thiazol-2-yl)-2-methoxyphenoxy)-N′-(5-chloro-2-oxoindolin-3-ylidene)acetohydrazide]	81.35%	– (GI% < 5%)	50.00%	71.36%	46.48%	18.57%	6.74%	27.89%	23.77%	34.10%	63.00%	15.62%	63.50%	16.12%	47.55%	31.89%	25.24%	– (GI% < 5%)	59.73%	32.76%	GI% (SK-MEL-2): 56.54%; GI% (786-0): 44.24%; GI% (TK-10): 62.99%; GI% (UO-31): 20.65%; Mean GI% [1]: 31.16%; melting point: 260 to 262 °C
COc1ccc(-c2nc3ccccc3s2)cc1OCC(=O)NN=C1C(=O)Nc2ccc([N+](=O)[O-])cc21 [Compound 9p, 2-(5-(Benzo[d]thiazol-2-yl)-2-methoxyphenoxy)-N′-(5-nitro-2-oxoindolin-3-ylidene)acetohydrazide]	9.28%	– (GI% < 5%)	– (GI% < 5%)	– (GI% < 5%)	– (GI% < 5%)	– (GI% < 5%)	– (GI% < 5%)	53.94%	89.39%	65.68%	86.59%	120.44%	78.07%	41.60%	19.93%	– (GI% < 5%)	13.06%	– (GI% < 5%)	38.18%	99.84%	GI% (SK-MEL-2): 115.65%; GI% (786-0): 87.35%; GI% (TK-10): 96.63%; GI% (UO-31): 19.08%; Mean GI% [1]: 30.34%; melting point: 288 to 290 °C
COc1ccc(-c2nc3ccccc3s2)cc1OCC(=O)NN=C1C(=O)Nc2ccccc21 [Compound 9m, 2-(5-(Benzo[d]thiazol-2-yl)-2-methoxyphenoxy)-N′-(2-oxoindolin-3-ylidene) acetohydrazide]	40.05%	– (GI% < 5%)	11.23%	23.70%	25.46%	12.20%	– (GI% < 5%)	– (GI% < 5%)	– (GI% < 5%)	10.76%	– (GI% < 5%)	– (GI% < 5%)	13.36%	– (GI% < 5%)	28.96%	– (GI% < 5%)	16.50%	– (GI% < 5%)	20.84%	– (GI% < 5%)	GI% (SK-MEL-2): – (GI% < 5%); GI% (TK-10): 10.32%; GI% (UO-31): – (GI% < 5%); Mean GI% [1]: 6.03%; melting point: 192 to 194 °C
CNC(=O)c1nn(C)c2c1C(C)(C)Cc1cnc(Nc3ccc(N4CCN(C)CC4)cc3)nc1-2 [Milciclib, reference compound]	89.60%	127.0%	94.6%	97.70%	99.60%	101.8%	116.2%	92.00%	84.70%	128.60%	87.7%	120.6%	91.50%	97.50%	90.10%	79.30%	87.10%	90.90%	91.10%	148.20%	GI% (SK-OV-3): 116.90%; GI% (786-0): 87.70%; GI% (TK-10): 112.5%; GI% (UO-31): 108.7%; Mean GI% [1]: > 100%; Mean GI% ([1]; listed as milciclib): more than 100%
